Several values for one entry are separate records, joined by “and”; a condition that tells them apart may be missing. Identical values can stand only once. Blank lines part the entries; values can stand above or below the compound they belong to.
Key:
[1] = test system: XBP1s protein in A549 cells; assay: Western blot of XBP1s protein level, A549; type: cell-based, human; details: 2 h compound, then 1 μg/mL tunicamycin 4 h
Experimental: (§1) A549 cells and MDA-MB-231 Cells were harvested and seeded into 6-well plates with a density of 8 × 10^5 cells per well and cultured overnight. […]. Protein concentrations were measured using a BCA protein assay kit (Thermo Scientific, 23227) and all samples were diluted to the same protein concentration. Each sample with 40 μg of total protein was loaded onto a 4–15% MP stain-free gel (Bio-Rad, 4568085) and separated in tris-glycine-SDS running buffer. The proteins were transferred onto a 0.45 μm PVDF membrane (Bio-Rad, 1704274) using the Trans-Blot Turbo Transfer System with the preprogrammed standard SD protocol (up to 1.0 A; 25 V; 30 min). Membranes were blocked with 5% skim milk (Roth, T145.2) in PBST buffer, then incubated with primary antibody IRE1α (Cell Signaling Technology, #3294 s, 1:1000), XBP1s (Cell Signaling Technology, #12782 s, 1:1000) GAPDH (Proteintech, 10494-1-AP, 1:6000) overnight at 4 °C with shaking. After incubation, membranes were washed with PBST and incubated with the Goat Anti-Rabbit (Proteintech, SA00001-2, 1:6000) antibody at room temperature for 1 h. After washing with PBST, the membranes were visualized using Amersham ECL Prime Western Blotting Detection Kit (Cytiva, RPN2232) and imaged with a ChemiDoc MP imaging system (Bio-Rad).

[2] = test system: XBP1s protein in MDA-MB-231 cells; assay: Western blot of XBP1s protein level, MDA-MB-231; type: cell-based, human
Experimental: as §1

[3] = test system: MDA-MB-468 cells; assay: Cell viability assay (CCK-8), MDA-MB-468; type: cell-based, human; details: MDA-MB-468; for inhibition at 50 µM: Homo sapiens, read-out: antiproliferation, inhibition at highest tested concentration
Experimental: (§2) Cells were collected and seeded into 96-well plates at a density of 2000–4000 cells per well and cultured overnight to allow cells to adhere. After adherence, cells were treated with the indicated compounds for 72 h. Then 20 μL CCK-8 solution (Vazyme, A311) was added into each well and incubated at 37 °C for 2–4 h. Absorbance was detected at a wavelength of 450 nm using a TECAN plate reader. Cell viability was calculated with the equation: Cell viability (%) = 100(Absorbance of treated cell - Absorbance of Blank control)/ (Absorbance of DMSO-treated cells - Absorbance of Blank control); Blank control: medium and CCK-8 solution, no cells.

[4] = target: T1, IRE1α (Homo sapiens, UniProt O75460); assay: Michaelis–Menten kinetic analysis with XBP1 RNA substrate; type: biochemical
T1 construct: Human IRE1α kinase and RNase domain (residues 547–977) was subcloned into pLIB plasmid; His tag (with TEV cleavage site) (N, cleaved yes); made in house; host or cells: Sf9 insect cells, baculovirus (Bac-to-Bac)
Experimental: I/s (fluorescence intensity/second), 7.98 FL. I/s, 2.33 FL. I/s and 0.9 FL. I/s, respectively.
The dual-labeled RNA substrate with a FAM at 5’ and the BHQ-1 at 3’ containing the XBP1 sequence (5′FAM-[…]-3′BHQ1) was purchased from Integrated DNA Technologies (IDT). The FRET-based IRE1α RNase activity assay was carried out in reaction buffer containing 20 mM HEPES pH 7.5, 50 mM KOAc, 1 mM MgOAc2, 1 mM DTT, 0.05% v/v TritonX-100, at a total reaction volume of 20 μL in a 384-well black plate (4514, Corning). […] […] The indicated compound and IRE1α protein were incubated for 30 min at room temperature before the substrate was added to the reaction. The plate was then kinetically read over one hour at room temperature using a TECAN Spark plate reader. The measurement was carried out using the fluorescence top reading mode at the excitation wavelength of 485 nm and the emission wavelength of 535 nm with a 10 nm excitation and emission bandwidth. The linear part of the reaction curve was adopted and fitted with sample linear regression to obtain the slope, and the slope was adopted to reflect the reaction rate. The inhibition % was calculated by using the equation: inhibition% = 100 × (slope of DMSO control – slope of the sample)/(slope of DMSO control – slope of blank control), DMSO control: DMSO with protein and RNA substrate; Blank control: DMSO with RNA substrate. The IC50 values were calculated using the concentration-response model in GraphPad Prism 9.

[5] = target: T2, p-IRE1α dimerization (Homo sapiens, UniProt O75460); assay: SDS-PAGE gel-based crosslinking assay
T2 construct: Human IRE1α kinase and RNase domain (residues 547–977) was subcloned into pLIB plasmid; His tag (with TEV cleavage site) (N, cleaved yes); made in house; host or cells: Sf9 insect cells, baculovirus (Bac-to-Bac)
Text: sustained inhibition effect.”
Fig. R1. (A) Gel-based cleavage assay using the same condition as FRET assay. (B) Fig.4g of current manuscript, IA107 binding affinity towards p-IRE1α in MST assay.
-Using Refeyn mass photometry of cross-linked IRE1α complexes, the authors observe that […]
However, this finding appears inconsistent with their crystallographic data showing separated RNase domains in dimeric IRE1. Since both kinase and RNase domain interactions contribute to the IRE1 dimer interface, one would expect at least some reduction in dimerization levels. It is also a bit worrying that the authors observe that one of the control compounds tested (G1749) also blocks dimerization/oligomerization in their assay (Extended Data Fig. 6d and 6e), as this compound was found not to affect the monomer/dimer equilibrium of IRE1 in PMID: 33318494.
We appreciate the Reviewer’s comments regarding the dimerization experiments. Our crystal […]
remain in the same dimer interaction interface as the apo p-IRE1α dimer. […]
observe dimerization inhibition by IA107 in the mass photometry assay nor SDS-PAGE gel-based crosslinking assay (Fig. R2A). […]
Fig. R2. […] Analyzed using the PDBePISA web server (PMID: 17681537). […]
inhibits IRE1α's RNase activity (measured as spliced XBP1 levels) in cells through engagement of IRE1α. […]

[6] = test system: A549 cells; assay: Cell viability assay (CCK-8), A549; type: cell-based, human; details: A549; for inhibition at 50 µM: Homo sapiens, read-out: antiproliferation, inhibition at highest tested concentration
Experimental: as §2

T1 sequence (O75460 547-977): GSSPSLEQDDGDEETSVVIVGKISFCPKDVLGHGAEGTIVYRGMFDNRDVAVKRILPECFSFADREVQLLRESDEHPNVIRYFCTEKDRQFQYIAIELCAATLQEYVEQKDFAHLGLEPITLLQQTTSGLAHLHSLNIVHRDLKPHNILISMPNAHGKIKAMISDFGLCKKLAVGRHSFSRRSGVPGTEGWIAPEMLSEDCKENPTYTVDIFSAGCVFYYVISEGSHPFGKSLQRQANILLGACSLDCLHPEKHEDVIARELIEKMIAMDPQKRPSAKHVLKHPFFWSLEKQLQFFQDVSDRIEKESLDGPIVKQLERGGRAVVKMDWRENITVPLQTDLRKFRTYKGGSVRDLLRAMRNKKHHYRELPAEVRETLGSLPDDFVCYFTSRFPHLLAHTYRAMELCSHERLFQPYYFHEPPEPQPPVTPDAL
T2 sequence (O75460 547-977): as above

SMILES: CCOC(=O)Nc1cccc2c(Oc3ncccc3-c3ccnc(N[C@H]4CCCNC4)n3)c(C)ccc12 [Compound G1749, reference compound]
effect on ER stress-induced XBP1s protein [1]: partially inhibited | effect on ER stress-induced XBP1s protein [2]: partially inhibited

SMILES: Cc1c(CCC(=O)O)c2cc(Br)ccc2n1C(=O)c1ccccc1 [IA107]
inhibition at 50 µM [3]: < 30% | cytotoxicity [3]: did not show cytotoxicity | inhibition mechanism towards the XBP1 mRNA substrate [4]: non-competitive | Vmax ([4]; 0.01 μM IA107): 7.98 FL. I/s | Vmax ([4]; 0.1 μM IA107): 2.33 FL. I/s | Vmax ([4]; 1 μM IA107): 0.9 FL. I/s | IRE1a Velocity ([4]; RNA 5000 nM, IA107 0.01 μM): 7.329 FL.I/s and 6.249 FL.I/s | IRE1a Velocity ([4]; RNA 5000 nM, IA107 0.1 μM): 1.807 FL.I/s and 2.323 FL.I/s | IRE1a Velocity ([4]; RNA 5000 nM, IA107 1 μM): 0.681 FL.I/s and 0.661 FL.I/s | IRE1a Velocity ([4]; RNA 10000 nM, IA107 0.01 μM): 7.224 FL.I/s and 6.354 FL.I/s | IRE1a Velocity ([4]; RNA 10000 nM, IA107 0.1 μM): 1.848 FL.I/s and 1.988 FL.I/s | IRE1a Velocity ([4]; RNA 10000 nM, IA107 1 μM): 0.902 FL.I/s and 0.839 FL.I/s | effect on p-IRE1α dimerization [5]: did not | cytotoxicity [6]: did not show cytotoxicity | inhibition at 50 µM [6]: < 30%

SMILES: CCOC(=O)CCc1c(C)n(C(=O)c2ccccc2)c2ccc(Br)cc12 [IAPD1]
inhibition at 50 µM [3]: < 30% | cytotoxicity [3]: did not show cytotoxicity | effect on ER stress-induced XBP1s protein [1]: inhibited the XPB1s protein level | effect on ER stress-induced XBP1s protein [2]: inhibited the XPB1s protein level | cytotoxicity [6]: did not show cytotoxicity | inhibition at 50 µM [6]: < 30%

effect on p-IRE1α dimerization [5]: inhibited dimerization
SMILES: Cc1ccc2c(NS(=O)(=O)c3ccccc3Cl)cccc2c1Oc1ncccc1-c1ccnc(N[C@H]2CCCNC2)n1 [KIRA8]

Reference: paper PMC12475274, “Harnessing indole scaffolds to identify small-molecule IRE1α inhibitors modulating XBP1 mRNA splicing” (Nature Communications, 2025)
